According to patent US8586747B2, “3,3-dimethyl tetrahydroquinoline derivatives” (Hoffmann-La Roche Inc., priority 2010, dated 2013):

system: AMP-activated protein kinase (AMPK); test: ADP Quest assay for AMPK activators; assay type: biochemical; parameters: key: fold AMPK activation with vs without activator at 30 µM; conditions: fold of AMPK activation to phosphorylate SAMS peptide without and with an activator at the concentration of 30 µM
Method in brief: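 E30, the fold increase in SAMS peptide phosphorylation at 30 µM compound relative to no activator, is derived from kinetic fluorescent detection of ADP (ex 530, em 590 nm). AMPK starts the ATP-containing reaction at room temperature; compounds span […] by 2-fold steps, AMP serves as reference.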

E30 | Structure (SMILES)
1.3 | CC1(C)Cc2cc(C(=O)O)ccc2NC1c1cccc(N2CCN(c3ccc(Cl)cc3)CC2)c1 (stereo not shown) [Example 87, 2-{3-[4-(4-Chloro-phenyl)-piperazin-1-yl]-phenyl}-3,3-dimethyl-1,2,3,4-tetrahydro-quinoline-6-carboxylic acid]
1.3 | Cc1ccc(N2CCN(c3cccc(C4Nc5ccc(C(=O)O)cc5CC4(C)C)c3)CC2)c(C)c1 (stereo not shown) [Example 89, 2-{3-[4-(2,4-Dimethyl-phenyl)-piperazin-1-yl]-phenyl}-3,3-dimethyl-1,2,3,4-tetrahydro-quinoline-6-carboxylic acid]
1.5 | CN1CCN(c2cccc(C3Nc4ccc(C(=O)NS(C)(=O)=O)cc4CC3(C)C)c2)CC1 (stereo not shown) [Example 96, N-{3,3-Dimethyl-2-[3-(4-methyl-piperazin-1-yl)-phenyl]-1,2,3,4-tetrahydro-quinoline-6-carbonyl}-methanesulfonamide]
1.46 | CC1(C)Cc2cc(C(=O)NS(=O)(=O)C3CC3)ccc2NC1c1cccc(N2CCNCC2)c1 (stereo not shown) [Example 97, Cyclopropanesulfonic acid [3,3-dimethyl-2-(3-piperazin-1-yl-phenyl)-1,2,3,4-tetrahydro-quinoline-6-carbonyl]-amide]
1.44 | CCS(=O)(=O)NC(=O)c1ccc2c(c1)CC(C)(C)C(c1cccc(N3CCOCC3)c1)N2 (stereo not shown) [Example 98, Ethanesulfonic acid [3,3-dimethyl-2-(3-morpholin-4-yl-phenyl)-1,2,3,4-tetrahydro-quinoline-6-carbonyl]-amide]
1.42 | CN1CCN(c2cccc(C3Nc4ccc(C(=O)O)cc4CC3(C)C)c2)CC1 (stereo not shown) [Example 99, 3,3-Dimethyl-2-[3-(4-methyl-piperazin-1-yl)-phenyl]-1,2,3,4-tetrahydro-quinoline-6-carboxylic acid]
1.4 | CC1(C)Cc2cc(C(=O)O)ccc2NC1c1cccc(N2CCNCC2)c1 (stereo not shown) [Example 102, 3,3-Dimethyl-2-(3-piperazin-1-yl-phenyl)-1,2,3,4-tetrahydro-quinoline-6-carboxylic acid]
1.37 | CC1(C)Cc2cc(C(=O)NS(C)(=O)=O)ccc2NC1c1cccc(N2CCNCC2)c1 (stereo not shown) [Example 103, N-[3,3-Dimethyl-2-(3-piperazin-1-yl-phenyl)-1,2,3,4-tetrahydro-quinoline-6-carbonyl]-methanesulfonamide]
1.35 | CC1CN(c2cccc(C3Nc4ccc(C(=O)NS(=O)(=O)C5CC5)cc4CC3(C)C)c2)CC(C)O1 (stereo not shown) [Example 105, Cyclopropanesulfonic acid {2-[3-(2,6-dimethyl-morpholin-4-yl)-phenyl]-3,3-dimethyl-1,2,3,4-tetrahydro-quinoline-6-carbonyl}-amide]
1.3 | CC1CN(c2cccc(C3Nc4ccc(C(=O)O)cc4CC3(C)C)c2)CC(C)O1 (stereo not shown) [Example 106, 2-[3-(2,6-Dimethyl-morpholin-4-yl)-phenyl]-3,3-dimethyl-1,2,3,4-tetrahydro-quinoline-6-carboxylic acid]
1.29 | COc1cccc(C2Nc3ccc(C(=O)N4CCC(C)(O)C4)cc3CC2(C)C)c1 (stereo not shown) [Example 107, (3-Hydroxy-3-methyl-pyrrolidin-1-yl)-[2-(3-methoxy-phenyl)-3,3-dimethyl-1,2,3,4-tetrahydro-quinolin-6-yl]-methanone]
1.24 | CC1(C)Cc2cc(C(=O)O)ccc2NC1c1cccc(-c2ccc(Cl)cc2)c1 (stereo not shown) [Example 109, 2-(4′-Chloro-biphenyl-3-yl)-3,3-dimethyl-1,2,3,4-tetrahydro-quinoline-6-carboxylic acid]
1.24 | CC1(C)Cc2cc(C(=O)NS(C)(=O)=O)ccc2NC1c1cccc(N2CCOC2=O)c1 (stereo not shown) [Example 110, N-{3,3-Dimethyl-2-[3-(2-oxo-oxazolidin-3-yl)-phenyl]-1,2,3,4-tetrahydro-quinoline-6-carbonyl}-methanesulfonamide]

Continued, compound first:

Structure (SMILES) | E30
CC1(C)Cc2cc(C(=O)NS(C)(=O)=O)ccc2NC1c1cccc(N2CCN(c3ccc(Cl)cc3)CC2)c1 (stereo not shown) [Example 88, N-(2-{3-[4-(4-Chloro-phenyl)-piperazin-1-yl]-phenyl}-3,3-dimethyl-1,2,3,4-tetrahydro-quinoline-6-carbonyl)-methanesulfonamide] | 1.35
Cc1ccc(N2CCN(c3cccc(C4Nc5ccc(C(=O)NS(C)(=O)=O)cc5CC4(C)C)c3)CC2)c(C)c1 (stereo not shown) [Example 90, N-(2-{3-[4-(2,4-Dimethyl-phenyl)-piperazin-1-yl]-phenyl}-3,3-dimethyl-1,2,3,4-tetrahydro-quinoline-6-carbonyl)-methanesulfonamide] | 1.44
Cc1ccc(N2CCN(c3cccc(C4Nc5ccc(C(=O)NS(=O)(=O)C6CC6)cc5CC4(C)C)c3)CC2)c(C)c1 (stereo not shown) [Example 91, Cyclopropanesulfonic acid (2-{3-[4-(2,4-dimethyl-phenyl)-piperazin-1-yl]-phenyl}-3,3-dimethyl-1,2,3,4-tetrahydro-quinoline-6-carbonyl)-amide] | 1.31
Cc1ccccc1N1CCN(c2cccc(C3Nc4c(cc(F)cc4C(=O)O)CC3(C)C)c2)CC1 (stereo not shown) [Example 92, 6-Fluoro-3,3-dimethyl-2-[3-(4-o-tolyl-piperazin-1-yl)-phenyl]-1,2,3,4-tetrahydro-quinoline-8-carboxylic acid] | 1.23
CC1(C)Cc2cc(Cl)cc(C(=O)NS(C)(=O)=O)c2NC1c1cccc(N2CCN(c3ccc(Cl)cc3)CC2)c1 (stereo not shown) [Example 93, N-(6-Chloro-2-{3-[4-(4-chloro-phenyl)-piperazin-1-yl]-phenyl}-3,3-dimethyl-1,2,3,4-tetrahydro-quinoline-8-carbonyl)-methanesulfonamide] | 1.32
Cc1ccccc1N1CCN(c2cccc(C3Nc4c(cccc4C(=O)O)CC3(C)C)c2)CC1 (stereo not shown) [Example 94, 3,3-Dimethyl-2-[3-(4-o-tolyl-piperazin-1-yl)-phenyl]-1,2,3,4-tetrahydro-quinoline-8-carboxylic acid] | 1.33
CC1(C)Cc2c(ccc(Cl)c2C(=O)O)NC1c1cccc(N2CCOCC2)c1 (stereo not shown) [Example 95, 6-Chloro-3,3-dimethyl-2-(3-morpholin-4-yl-phenyl)-1,2,3,4-tetrahydro-quinoline-5-carboxylic acid] | 1.56
CC1(C)Cc2cc(Cl)cc(C(=O)O)c2NC1c1cccc(N2CCOCC2)c1 (stereo not shown) [Example 100, 6-Chloro-3,3-dimethyl-2-(3-morpholin-4-yl-phenyl)-1,2,3,4-tetrahydro-quinoline-8-carboxylic acid] | 1.4
CC1(C)Cc2cc(Cl)cc(C(=O)NS(=O)(=O)C3CC3)c2NC1c1cccc(N2CCOCC2)c1 (stereo not shown) [Example 101, Cyclopropanesulfonic acid [6-chloro-3,3-dimethyl-2-(3-morpholin-4-yl-phenyl)-1,2,3,4-tetrahydro-quinoline-8-carbonyl]-amide] | 1.4
CC1(C)Cc2cc(C(=O)O)ccc2NC1c1cccnc1 (stereo not shown) [Example 108, 3,3-Dimethyl-2-pyridin-3-yl-1,2,3,4-tetrahydro-quinoline-6-carboxylic Acid] | 1.29
CC1(C)Cc2c(C(=O)O)ccc(Cl)c2NC1c1cccc(N2CCOCC2)c1 (stereo not shown) [Example 111, 8-Chloro-3,3-dimethyl-2-(3-morpholin-4-yl-phenyl)-1,2,3,4-tetrahydro-quinoline-5-carboxylic acid] | 1.24
CC1(C)Cc2cc(C(=O)O)cc(Cl)c2NC1c1cccc(N2CCOCC2)c1 (stereo not shown) [Example 112, 8-Chloro-3,3-dimethyl-2-(3-morpholin-4-yl-phenyl)-1,2,3,4-tetrahydro-quinoline-6-carboxylic acid] | 1.22
